Experimental data published in ChEMBL document CHEMBL4138123, “Design, synthesis and biological evaluation of novel pyrazolochalcones as potential modulators of PI3K/Akt/mTOR pathway and inducers of apoptosis in breast cancer cells” (Eur J Med Chem, 2017).

Columns and labels:
Assay type in all cases: functional
SF-268 = assay: Cytotoxicity against human SF268 cells assessed as cell growth at 100 uM after 48 hrs by sulforhodamine B assay relative to control; details: SF-268, 48 h, read-out: Activity
HT-29 [1] = assay: Cytotoxicity against human HT-29 cells assessed as cell growth at 100 uM after 48 hrs by sulforhodamine B assay relative to control; details: HT-29, 48 h, read-out: Activity
HT-29 [2] = assay: Cytotoxicity against human HT-29 cells assessed as cell growth at 0.1 uM after 48 hrs by sulforhodamine B assay relative to control; details: HT-29, 48 h, read-out: Activity
RXF 393 [3] = assay: Cytotoxicity against human RXF393 cells assessed as cell growth at 1 uM after 48 hrs by sulforhodamine B assay relative to control; details: RXF 393, 48 h, read-out: Activity
NCI-H322M [4] = assay: Cytotoxicity against human NCI-H322M cells assessed as cell growth at 100 uM after 48 hrs by sulforhodamine B assay relative to control; details: read-out: Activity
PC-3 = assay: Cytotoxicity against human PC3 cells assessed as cell growth at 1 uM after 48 hrs by sulforhodamine B assay relative to control; details: PC-3, 48 h, read-out: Activity
IGROV-1 = assay: Cytotoxicity against human IGROV1 cells assessed as cell growth at 0.01 uM after 48 hrs by sulforhodamine B assay relative to control; details: IGROV-1, 48 h, read-out: Activity
MOLT-4 = assay: Cytotoxicity against human MOLT4 cells assessed as cell growth at 0.1 uM after 48 hrs by sulforhodamine B assay relative to control; details: MOLT-4, 48 h, read-out: Activity
NCI-H226 = assay: Cytotoxicity against human NCI-H226 cells assessed as cell growth at 0.1 uM after 48 hrs by sulforhodamine B assay relative to control; details: NCI-H226, 48 h, read-out: Activity
RXF 393 [5] = assay: Cytotoxicity against human RXF393 cells assessed as cell growth at 0.01 uM after 48 hrs by sulforhodamine B assay relative to control; details: RXF 393, 48 h, read-out: Activity
HCT-116 = assay: Cytotoxicity against human HCT116 cells assessed as cell growth at 1 uM after 48 hrs by sulforhodamine B assay relative to control; details: HCT-116, 48 h, read-out: Activity
OVCAR-8 [6] = assay: Cytotoxicity against human OVCAR8 cells assessed as growth inhibition after 48 hrs by sulforhodamine B assay; details: OVCAR-8, 48 h
786-0 = assay: Cytotoxicity against human 786-0 cells assessed as cell growth at 0.01 uM after 48 hrs by sulforhodamine B assay relative to control; details: 786-0, 48 h, read-out: Activity
NCI-H460 = assay: Cytotoxicity against human NCI-H460 cells assessed as cell growth at 0.01 uM after 48 hrs by sulforhodamine B assay relative to control; details: NCI-H460, 48 h, read-out: Activity
LOX IMVI = assay: Cytotoxicity against human LOXIMVI cells assessed as growth inhibition after 48 hrs by sulforhodamine B assay
SK-OV-3 = assay: Cytotoxicity against human SKOV3 cells assessed as cell growth at 0.01 uM after 48 hrs by sulforhodamine B assay relative to control; details: SK-OV-3, 48 h, read-out: Activity
Malme-3M = assay: Cytotoxicity against human MALME-3M cells assessed as cell growth at 0.01 uM after 48 hrs by sulforhodamine B assay relative to control; details: read-out: Activity
RPMI-8226 [7] = assay: Cytotoxicity against human RPMI8226 cells assessed as cell growth at 10 uM after 48 hrs by sulforhodamine B assay relative to control; details: RPMI-8226, 48 h, read-out: Activity
UACC-62 = assay: Cytotoxicity against human UACC62 cells assessed as cell growth at 0.01 uM after 48 hrs by sulforhodamine B assay relative to control; details: UACC-62, 48 h, read-out: Activity
A549 = assay: Cytotoxicity against human A549/ATCC cells assessed as cell growth at 0.01 uM after 48 hrs by sulforhodamine B assay relative to control; details: A549, 48 h, read-out: Activity
OVCAR-8 [8] = assay: Cytotoxicity against human OVCAR8 cells assessed as cell growth at 0.1 uM after 48 hrs by sulforhodamine B assay relative to control; details: OVCAR-8, 48 h, read-out: Activity
SK-MEL-2 = assay: Cytotoxicity against human SK-MEL-2 cells assessed as growth inhibition after 48 hrs by sulforhodamine B assay; details: SK-MEL-2, 48 h
UACC-257 = assay: Cytotoxicity against human UACC257 cells assessed as cell growth at 100 uM after 48 hrs by sulforhodamine B assay relative to control; details: UACC-257, 48 h, read-out: Activity
OVCAR-8 [9] = assay: Cytotoxicity against human OVCAR8 cells assessed as cell growth at 10 uM after 48 hrs by sulforhodamine B assay relative to control; details: OVCAR-8, 48 h, read-out: Activity
A498 = assay: Cytotoxicity against human A498 cells assessed as cell growth at 0.01 uM after 48 hrs by sulforhodamine B assay relative to control; details: A498, 48 h, read-out: Activity
HT-29 [10] = assay: Cytotoxicity against human HT-29 cells assessed as growth inhibition after 48 hrs by sulforhodamine B assay; details: HT-29, 48 h
SF-539 = assay: Cytotoxicity against human SF539 cells assessed as cell growth at 0.01 uM after 48 hrs by sulforhodamine B assay relative to control; details: SF-539, 48 h, read-out: Activity
NCI-H322M [11] = assay: Cytotoxicity against human NCI-H322M cells assessed as cell growth at 1 uM after 48 hrs by sulforhodamine B assay relative to control; details: read-out: Activity
HT-29 [12] = assay: Cytotoxicity against human HT-29 cells assessed as cell growth at 0.01 uM after 48 hrs by sulforhodamine B assay relative to control; details: HT-29, 48 h, read-out: Activity
T47D = assay: Cytotoxicity against human T47D cells assessed as cell growth at 0.01 uM after 48 hrs by sulforhodamine B assay relative to control; details: read-out: Activity
NCI/ADR-RES = assay: Cytotoxicity against human NCI/ADR-RES cells assessed as cell growth at 10 uM after 48 hrs by sulforhodamine B assay relative to control; details: read-out: Activity
U-251 = assay: Cytotoxicity against human U251 cells assessed as cell growth at 0.1 uM after 48 hrs by sulforhodamine B assay relative to control; details: U-251, 48 h, read-out: Activity
MDA-MB-435 = assay: Cytotoxicity against human MDA-MB-435 cells assessed as cell growth at 0.01 uM after 48 hrs by sulforhodamine B assay relative to control; details: MDA-MB-435, 48 h, read-out: Activity
RPMI-8226 [13] = assay: Cytotoxicity against human RPMI8226 cells assessed as cell growth at 0.01 uM after 48 hrs by sulforhodamine B assay relative to control; details: RPMI-8226, 48 h, read-out: Activity
MCF7 = assay: Cytotoxicity against human MCF7 cells assessed as cell growth at 10 uM after 48 hrs by sulforhodamine B assay relative to control; details: MCF7, 48 h, read-out: Activity
ACHN = assay: Cytotoxicity against human ACHN cells assessed as cell growth at 100 uM after 48 hrs by sulforhodamine B assay relative to control; details: read-out: Activity

Row | Compound | growth at 100 µM (SF-268) [%] | growth at 100 µM (HT-29 [1]) [%] | growth at 0.1 µM (HT-29 [2]) [%] | growth at 1 µM (RXF 393 [3]) [%] | growth at 100 µM (NCI-H322M [4]) [%] | growth at 1 µM (PC-3) [%] | growth at 0.01 µM (IGROV-1) [%] | growth at 0.1 µM (MOLT-4) [%] | growth at 0.1 µM (NCI-H226) [%] | growth at 0.01 µM (RXF 393 [5]) [%] | growth at 1 µM (HCT-116) [%] | LC50 (OVCAR-8 [6]) [µM] | TGI (OVCAR-8 [6]) [µM] | growth at 0.01 µM (786-0) [%] | growth at 0.01 µM (NCI-H460) [%] | growth at 0.01 µM (SK-OV-3) [%] | growth at 0.01 µM (Malme-3M) [%] | growth at 10 µM (RPMI-8226 [7]) [%] | growth at 0.01 µM (UACC-62) [%] | growth at 0.01 µM (A549) [%] | also measured
1 | COc1cc(-c2cc(/C=C/C(=O)c3ccc(F)c(F)c3)[nH]n2)cc(OC)c1OC | 1 | -67 | 102 | 82 | 3 | 70 | 97 | 106 | 97 | 94 | 113 | > 100 | 17.3 | 95 | 106 | 98 | 93 | -21 | 97 | 101 | LC50 (LOX IMVI): 41.5 µM; TGI (LOX IMVI): 12.2 µM; growth at 0.1 µM (OVCAR-8 [8]): 96%; LC50 (concentration killing 50% of cells) (SK-MEL-2): 41.1 µM; TGI (SK-MEL-2): 5.89 µM; growth at 100 µM (UACC-257): -37%; growth at 10 µM (OVCAR-8 [9]): 4%; growth at 0.01 µM (A498): 100%; LC50 (HT-29 [10]): 40.8 µM; TGI (HT-29 [10]): 6.46 µM; growth at 0.01 µM (SF-539): 100%; growth at 1 µM (NCI-H322M [11]): 86%; growth at 0.01 µM (HT-29 [12]): 104%; growth at 0.01 µM (T47D): 95%; growth at 10 µM (NCI/ADR-RES): 11%; growth at 0.1 µM (U-251): 96%; growth at 0.01 µM (MDA-MB-435): 98%; growth at 0.01 µM (RPMI-8226 [13]): 94%; growth at 10 µM (MCF7): 2%
2 | COc1ccc(-c2cc(/C=C/C(=O)c3ccc4c(c3)OCO4)[nH]n2)cc1OC |  |  |  |  |  |  |  |  |  |  |  |  |  |  |  |  |  |  |  |  | GI50 (OVCAR-8 [6]): 2.63 µM; GI50 (LOX IMVI): 1.29 µM; GI50 (SK-MEL-2): 2.46 µM; GI50 (HT-29 [10]): 1.38 µM
3 | COc1ccc(C(=O)/C=C/c2cc(-c3ccc4c(c3)OCO4)n[nH]2)cc1OC | -74 | -44 | 92 | 105 | -90 | 74 | 100 | 97 | 93 | 98 | 87 | 40.2 | 5.82 | 96 | 101 | 99 | 93 | -20 | 98 | 96 | LC50 (LOX IMVI): 8.46 µM; TGI (LOX IMVI): 4.08 µM; growth at 0.1 µM (OVCAR-8 [8]): 98%; LC50 (concentration killing 50% of cells) (SK-MEL-2): 68 µM; TGI (SK-MEL-2): 23.2 µM; growth at 100 µM (UACC-257): -81%; growth at 10 µM (OVCAR-8 [9]): -27%; growth at 100 µM (ACHN): -4%; growth at 0.01 µM (A498): 78%; LC50 (HT-29 [10]): > 100 µM; TGI (HT-29 [10]): 11.3 µM; growth at 0.01 µM (SF-539): 98%; growth at 1 µM (NCI-H322M [11]): 92%; growth at 0.01 µM (HT-29 [12]): 93%; growth at 0.01 µM (T47D): 90%; growth at 0.1 µM (U-251): 91%; growth at 0.01 µM (MDA-MB-435): 98%; growth at 0.01 µM (RPMI-8226 [13]): 99%; growth at 10 µM (MCF7): 14%
4 | COc1cc2c(cc1OC)C(=O)/C(=C/c1cc(-c3ccc4c(c3)OCO4)n[nH]1)C2 | -73 | -70 | 103 | 80 | -91 | 65 | 100 | 99 | 83 | 97 | 51 | 5.93 | 3.05 | 96 | 99 | 102 | 93 | -59 | 100 | 98 | GI50 (OVCAR-8 [6]): 1.57 µM; growth at 0.1 µM (OVCAR-8 [8]): 98%; growth at 100 µM (UACC-257): -95%; growth at 10 µM (OVCAR-8 [9]): -89%; growth at 100 µM (ACHN): -89%; growth at 0.01 µM (A498): 80%; GI50 (HT-29 [10]): 1.45 µM; LC50 (HT-29 [10]): 6.63 µM; TGI (HT-29 [10]): 3.09 µM; growth at 0.01 µM (SF-539): 100%; growth at 1 µM (NCI-H322M [11]): 82%; growth at 0.01 µM (HT-29 [12]): 98%; growth at 0.01 µM (T47D): 92%; growth at 10 µM (NCI/ADR-RES): -17%; growth at 0.1 µM (U-251): 95%; growth at 0.01 µM (MDA-MB-435): 102%; growth at 0.01 µM (RPMI-8226 [13]): 100%; growth at 10 µM (MCF7): -84%
